Measurements published in ChEMBL document CHEMBL2150966, “Discovery of a novel series of potent and orally bioavailable phosphoinositide 3-kinase γ inhibitors” (J Med Chem, 2012).
Converted amounts (≈) assume the structure as drawn.

Assays:
[1] = Plasma concentration in C57BL6 mouse at 100 mg/kg, po after 1 hr; format: ADME, organism-based; set-up: dose 100 mg/kg, route oral
[2] = Plasma concentration in C57BL6 mouse at 100 mg/kg, po after 4 hr; format: ADME, organism-based; set-up: dose 100 mg/kg, route oral
[3] = Kinetic solubility of compound in PBS at pH 7.4; format: physicochemical; conditions: read-out: Kinetic_solubility
[4] = Lipophilicity of compound, Log D; format: physicochemical; conditions: octanol/water
[5] = Drug metabolism in mouse liver microsome assessed as compound oxidation after 30 mins; format: ADME; conditions: liver microsomes, read-out: Drug metabolism
[6] = Half life in Sprague-Dawley rat at 5 mg/kg, po; format: ADME, organism-based; set-up: dose 5 mg/kg, route oral; conditions: in vivo
[7] = Oral bioavailability Sprague-Dawley rat at 5 mg/kg; format: ADME, organism-based; conditions: in vivo
[8] = AUC (0 to infinity) in Sprague-Dawley rat at 5 mg/kg, po; format: ADME, organism-based; set-up: time infinity, dose 5 mg/kg, route oral; conditions: plasma
[9] = Apparent permeability across apical to basolateral side of MDCK cells; format: ADME, cell-based, Canis lupus familiaris; conditions: dog
in vivo = conditions: BALB/c, mouse, plasma, po, 100 mg/kg
[10] = Cmax in Sprague-Dawley rat at 5 mg/kg, po; format: ADME, organism-based; set-up: dose 5 mg/kg, route oral; conditions: in vivo

| Compound | concentration at 1 h [1] | concentration at 4 h [2] | Papp A→B [9] | also measured |
| --- | --- | --- | --- | --- |
| COc1ccc(-c2cccc(S(=O)(=O)N3CCN(c4nccnc4-c4ccc(OC)cc4)CC3)c2)cc1 | 0.5 µM | 0.1 µM | – | – |
| CNC(=O)c1nc(-c2cccc(-c3nnn[nH]3)c2)cnc1N | – | – | – | solubility kinetic [3]: 424 µM (≈ 126 µg/mL); logD [4]: 0.47 |
| CC(C)c1ccc(-c2nccnc2N2CCN(S(=O)(=O)c3cccc(-c4cnc(N)nc4)c3)CC2)cc1 | 0.7 µM | 0.1 µM | – | metabolised at 0.5 h [5]: 79% |
| CC(C)c1ccc(-c2ncccc2N2CCN(S(=O)(=O)c3cccc(-c4cnc(N)nc4)c3)CC2)cc1 | 12.9 µM | 3.2 µM | – | half-life [6]: 1.82 h; bioavailability [7]: 12.7%; solubility kinetic [3]: < 5 µM; metabolised at 0.5 h [5]: 37%; logD [4]: > 4; AUC(0-inf) [8]: 0.9 µM·h |
| CNC(=O)c1nc(-c2cccc(S(=O)(=O)Nc3ccccc3)c2)cnc1N | – | – | 10 ×10⁻⁶ cm/s | – |
| CNC(=O)c1nc(-c2ccc(Cl)c(S(=O)(=O)Nc3ccccc3)c2)cnc1N | – | – | 10 ×10⁻⁶ cm/s | – |
| CNC(=O)c1nc(-c2ccc(Cl)c(S(=O)(=O)NC)c2)cnc1N | – | – | 10 ×10⁻⁶ cm/s | – |
| CNC(=O)c1nc(-c2ccc(Cl)c(S(N)(=O)=O)c2)cnc1N | – | – | 10 ×10⁻⁶ cm/s | – |
| CNC(=O)c1nc(-c2ccc(Cl)c(S(=O)(=O)NCC(F)(F)F)c2)cnc1N | – | – | 10 ×10⁻⁶ cm/s | solubility kinetic [3]: 211 µM (≈ 89.4 µg/mL) |
| CNC(=O)c1nc(-c2ccc(OC)c(S(=O)(=O)Nc3ccccc3)c2)cnc1N | – | – | 10 ×10⁻⁶ cm/s | – |
| CNC(=O)c1nc(-c2ccc(F)c(S(=O)(=O)Nc3ccccc3)c2)cnc1N | – | – | 10 ×10⁻⁶ cm/s | – |
| CNC(=O)c1nc(-c2cnc(N)c(S(=O)(=O)Nc3ccccc3)c2)cnc1N | – | – | 10 ×10⁻⁶ cm/s | – |
| CNC(=O)c1nc(-c2cccc(NS(=O)(=O)c3ccccc3)c2)cnc1N | – | – | 10 ×10⁻⁶ cm/s | – |
| CNC(=O)c1nc(-c2cccc(NS(=O)(=O)c3cccc(Cl)c3)c2)cnc1N | – | – | 10 ×10⁻⁶ cm/s | – |
| CNC(=O)c1nc(-c2ccc(Cl)c(NS(=O)(=O)c3cccc(Cl)c3)c2)cnc1N | – | – | 10 ×10⁻⁶ cm/s | – |
| CNC(=O)c1nc(-c2ccc(Cl)c(S(=O)(=O)Nc3cccc(C)c3)c2)cnc1N | – | – | 10 ×10⁻⁶ cm/s | – |
| CNC(=O)c1nc(-c2ccc(Cl)c(S(=O)(=O)Nc3cccc(F)c3)c2)cnc1N | 1.6 µM | 1 µM | 10 ×10⁻⁶ cm/s | – |
| CNC(=O)c1nc(-c2ccc(Cl)c(S(=O)(=O)Nc3cccc(OC)c3)c2)cnc1N | 0.7 µM | 0.09 µM | 10 ×10⁻⁶ cm/s | – |

| Compound | concentration at 1 h [1] | concentration at 4 h [2] | Papp A→B [9] | also measured |
| --- | --- | --- | --- | --- |
| CNC(=O)c1nc(-c2ccc(Cl)c(S(=O)(=O)Nc3cccc(C(F)(F)F)c3)c2)cnc1N | 1.7 µM | 0.4 µM | 10 ×10⁻⁶ cm/s | – |
| CNC(=O)c1nc(-c2ccc(Cl)c(S(=O)(=O)Nc3cccc(Cl)c3)c2)cnc1N | 1.3 µM | 0.1 µM | 10 ×10⁻⁶ cm/s | solubility kinetic [3]: < 1 µM |
| CNC(=O)c1nc(-c2ccc(Cl)c(S(=O)(=O)Nc3ccccc3Cl)c2)cnc1N | 59.1 µM | 9.6 µM | 10 ×10⁻⁶ cm/s | solubility kinetic [3]: 24 µM (≈ 10.9 µg/mL) |
| CNC(=O)c1nc(-c2ccc(Cl)c(S(=O)(=O)Nc3ccc(Cl)cc3)c2)cnc1N | – | – | 10 ×10⁻⁶ cm/s | – |
| CNC(=O)c1nc(-c2cccc(S(=O)(=O)Nc3cccc(Cl)c3)c2)cnc1N | 0.6 µM | 0.4 µM | 10 ×10⁻⁶ cm/s | – |
| CNC(=O)c1nc(-c2ccc(Cl)c(S(=O)(=O)Nc3ccc(F)cc3Cl)c2)cnc1N | 64.8 µM | 19.2 µM | 10 ×10⁻⁶ cm/s | concentration at 4 h (in vivo): 20.3 µM |
| CNC(=O)c1nc(-c2ccc(Cl)c(S(=O)(=O)Nc3cccc(F)c3Cl)c2)cnc1N | 237 µM | 39.8 µM | 10 ×10⁻⁶ cm/s | – |
| CNC(=O)c1nc(-c2ccc(Cl)c(S(=O)(=O)Nc3ccc(Cl)cc3Cl)c2)cnc1N | 21.3 µM | 8.6 µM | 10 ×10⁻⁶ cm/s | concentration at 4 h (in vivo): 6.5 µM |
| CNC(=O)c1nc(-c2ccc(Cl)c(S(=O)(=O)Nc3cccc(Cl)c3Cl)c2)cnc1N | 173 µM | 22.1 µM | 10 ×10⁻⁶ cm/s | – |
| CNC(=O)c1nc(-c2cccc(S(=O)(=O)Nc3cccc(F)c3F)c2)cnc1N | – | – | 10 ×10⁻⁶ cm/s | – |
| CNC(=O)c1nc(-c2ccc(Cl)c(S(=O)(=O)Nc3cccc(F)c3F)c2)cnc1N | 333 µM | 119 µM | 55 ×10⁻⁶ cm/s | half-life [6]: 4.44 h; bioavailability [7]: 76.7%; solubility kinetic [3]: 176 µM (≈ 79.9 µg/mL); Cmax [10]: 42.5 µM; concentration at 4 h (in vivo): 43.1 µM; AUC(0-inf) [8]: 449 µM·h |
| CNC(=O)c1nc(-c2ccc(Cl)c(S(=O)(=O)Nc3cccc(F)c3C)c2)cnc1N | 13.1 µM | 6.2 µM | 10 ×10⁻⁶ cm/s | half-life [6]: 2.08 h; bioavailability [7]: 66.2%; Cmax [10]: 9.1 µM; concentration at 4 h (in vivo): 9.2 µM; AUC(0-inf) [8]: 26.8 µM·h |
| Nc1cnc(-c2ccc(Cl)c(S(=O)(=O)Nc3cccc(F)c3F)c2)cn1 | – | – | 10 ×10⁻⁶ cm/s | – |
| Nc1ncc(-c2ccc(Cl)c(S(=O)(=O)Nc3cccc(F)c3F)c2)cn1 | – | – | 10 ×10⁻⁶ cm/s | – |
| COc1nc(N)ncc1-c1ccc(Cl)c(S(=O)(=O)Nc2cccc(F)c2F)c1 | – | – | 10 ×10⁻⁶ cm/s | – |
| Nc1ncc(-c2ccc(Cl)c(S(=O)(=O)Nc3cccc(F)c3F)c2)c(OCC(F)(F)F)n1 | – | – | 10 ×10⁻⁶ cm/s | – |
| CS(=O)(=O)N1CCN(Cc2cc3nc(-c4cccc5[nH]ncc45)nc(N4CCOCC4)c3s2)CC1 [PICTILISIB] | – | – | – | concentration at 4 h (in vivo): 5.3 µM |
